# From patent US20030077826A1, “Chimeric molecules containing a module able to target specific cells and a module regulating the apoptogenic function of the permeability transition pore complex (PTPC)” (priority 2001, published 2003)
# Ends that are not written are not given here. Peptide text beside a SMILES is read from it. * marks the point of attachment. Biotin = O=C1N[C@H]2[C@H](CS[C@H]2CCCCC(=O)*)N1
# T1: Purified ANT (Rattus norvegicus, UniProt Q05962)
# T1 sequence (Q05962 1-298): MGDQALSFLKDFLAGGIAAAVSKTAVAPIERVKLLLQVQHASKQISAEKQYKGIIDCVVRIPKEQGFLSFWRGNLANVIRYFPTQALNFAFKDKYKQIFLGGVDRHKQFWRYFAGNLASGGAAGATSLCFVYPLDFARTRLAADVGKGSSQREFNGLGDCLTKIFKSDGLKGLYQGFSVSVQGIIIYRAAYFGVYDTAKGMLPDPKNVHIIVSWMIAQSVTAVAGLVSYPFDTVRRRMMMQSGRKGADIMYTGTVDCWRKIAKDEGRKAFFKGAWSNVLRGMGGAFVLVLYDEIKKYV
# T2: adenine nucleotide translocator (ANT), purified from rat heart mitochondria (rat), Q05962
# T2 chain: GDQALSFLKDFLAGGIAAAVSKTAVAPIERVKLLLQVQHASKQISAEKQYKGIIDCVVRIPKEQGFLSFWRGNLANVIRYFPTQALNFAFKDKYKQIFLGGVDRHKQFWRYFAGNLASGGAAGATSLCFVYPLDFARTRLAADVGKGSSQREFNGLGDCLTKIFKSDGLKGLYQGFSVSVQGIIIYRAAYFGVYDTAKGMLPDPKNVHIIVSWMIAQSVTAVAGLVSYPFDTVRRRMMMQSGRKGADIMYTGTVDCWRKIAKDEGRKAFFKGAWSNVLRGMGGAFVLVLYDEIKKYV
# How the values were obtained:
# [1] = test system: permeability transition pore (PTP); test: Swelling of isolated mitochondria (large amplitude swelling, 90° light scattering); type: biochemical, rat; parameters: key to Induction of Mitochondrial swelling (sw): +++ rapid sw; ++ low sw; + very low sw; − no sw t 20 min; conditions: for Induction of Mitochondrial swelling (sw): 5 μM, 20 min, isolated mitochondria
# Experimental: Mitochondria are purified from rat liver, as described (Costantini et al., 1996), and resuspended in 250 mM sucrose+0.1 mM EGTA+10 mM-tris[hydroxymethyl]methyl-2-Aminoethanesulfonic acid, pH=7.4). For the induction of PT, mitochondria (0.5 mg protein per ml) are resuspended in PT buffer (200 mM sucrose, 10 mM Tris-MOPS (pH 7.4), 5 mM Tris-succinate, 1 mM Tris-phosphate, 2 μM rotenone, and 10 μM EGTA-Tris), and monitored in an F4500 fluorescence spectrometer (Hitachi, Tokyo, Japan) for the 90° light scattering of light ([…]), 1 μM cyclosporin A (CsA; Novartis, Basel, Switzerland), 5 μM CaCl2, and/or 0.5 to 20 μM of pTarg-pTox or pTarg-pSave. For the determination of the ΔΨm, mitochondria (0.5 mg protein per ml) are incubated in a buffer supplemented with 1 μM rhodamine 123 (Molecular Probes, Eugene, Oreg.) and the dequenching of rhodamine fluorescence (excitation 505 nm, emission 525 nm) is measured as described (Shimizu et al, 1998). Supernatants from mitochondria (6800 g for 15 min; then 20 000 g for 1 h; 4° C.) are frozen at −80° C. until determination of apoptogenic activity on isolated nuclei, DEVD-afc cleaving activity, and immunodetection of cytochrome c and AIF. Cytochrome c and AIF are detected by means of a monoclonal antibody (clone 7H8.2C12, Pharmingen) and a polyclonal rabbit anti-serum (Susin et al. 1999) respectively.
# [2] = target: T1, Purified ANT; test: biochemical; type: binding
# Experimental: (§1) Sensor Chips SA (streptavidin coated sensor chips) were used for immobilisation of the different peptides. Tox1 was immobilised at a density of 0.7 ng/mm^2, Tox0 at a density of 3.7 ng/mm^2,. Ctr1Tox0 at a density of 1.4 ng/mm^2, Tox5 at a density of 1 ng/mm^2, Tox6 at a density of 1 ng/mm2, Save1 at a density of 1.3 ng/mm^2, and the control peptide at a density of 0.8 ng/mm^2. Association and dissociation kinetics of ANT and VDAC interactions were followed at a rate of 10 μL/min for 10 minutes (5 minutes association and 5 minutes dissociation). The ligand was regenerated with a 1 minute flux of KSCN 3M. The obtained sensorgrams were analysed by the BlAeval 3.1 software using the method of double references (Myszka D. G. 2000. Kinetic, equilibrium and thermodynamic analysis of macromolecular interactions with BIACORE. Methods Enzymol. 323:325-340). From the sensorgrams with the ligands were first substracted the sensorgrams obtained with the corresponding analyte solvents. A second substraction was performed with the sensorgrams obtained with the control peptide ligand. The control peptide for the Tox and Save peptides was biot-H19C corresponding to the sequence of the β2-adrenergic receptor (Lebesgue D., Wallukat G., Mijares A., Granier C., Argibay J., and Hoebeke J. (1998) An agonist-like monoclonal antibody to the human β 2-adrenergic receptor. Eur.J. Pharmacol. 348:123-133). The control peptide for Tox0 was Ctr1Tox0.
# [3] = test system: Purified VDAC; test: Surface plasmon resonance, immobilised peptides with purified VDAC; type: binding; conditions: for specific binding of VDAC: 50 nM VDAC
# Experimental: as §1
# [4] = target: T2, adenine nucleotide translocator (ANT), …; test: SPR (BIAcore), peptide on streptavidin chip, ANT as analyte at one concentration (50 nM)
# [5] = target: T2, adenine nucleotide translocator (ANT), …
molecule,measurement,setting,value
"C=C1[C@@H]2CC[C@H]3[C@]4(C)C[C@H](O[C@@H]5O[C@H](CO)[C@@H](OS(=O)(=O)O)[C@H](OS(=O)(=O)O)[C@H]5OC(=O)CC(C)C)C[C@@H](C(=O)O)[C@H]4CC[C@]3(C2)[C@H]1O [Atractyloside, atractyloside, reference compound]",Mitrochondrial swelling (sw) %,[1]; 600 μM alone,110%
"[Ca+2] [Ca 2 +, reference compound]",Mitrochondrial swelling (sw) %,[1]; 100 μM alone,100%
"C[C@H](NC(=O)[C@H](Cc1ccccc1)NC(=O)[C@H](Cc1ccc(O)cc1)NC(=O)[C@H](CCCNC(=N)N)NC(=O)[C@H](Cc1c[nH]c2ccccc12)NC(=O)[C@H](Cc1ccccc1)NC(=O)[C@H](CCC(N)=O)NC(=O)[C@@H](NC(=O)[C@H](CCCNC(=N)N)NC(=O)[C@H](CCCCN)NC(=O)[C@H](CC(=O)O)NC(=O)[C@H](CCCNC(=N)N)NC(=O)[C@H](CCCNC(=N)N)NC(=O)[C@H](CCCNC(=N)N)NC(=O)[C@H](CCC(N)=O)NC(=O)[C@H](CCCNC(=N)N)NC(=O)[C@H](CCCNC(=N)N)NC(=O)[C@H](CCCCN)NC(=O)[C@H](CCCCN)NC(=O)[C@H](CCCNC(=N)N)NC(=O)CCCC[C@@H]1SC[C@@H]2NC(=O)N[C@@H]21)[C@@H](C)O)C(=O)NCC(=O)N[C@@H](CC(N)=O)C(=O)O [Save1, Biot-RKKRRQRRR-DKRTQFWRYFAGN (hANT2)] (Biotin-RKKRRQRRRDKRTQFWRYFAGN-OH; C-terminus assumed)",Mitrochondrial swelling (sw) %,[1]; 5 μM + Atr 600 μM,5%
same,Mitrochondrial swelling (sw) %,[1]; 5 μM alone,2%
same,Mitrochondrial swelling (sw) %,[1]; 20 μM + Atr 600 μM,12%
same,Mitrochondrial swelling (sw) %,[1]; 20 μM alone,12%
same,Kd,[2],10 pM
same,specific binding of VDAC,[3],did not result in any specific binding
CC[C@H](C)[C@H](NC(=O)CNC(=O)[C@@H](NC(=O)[C@H](CCCNC(=N)N)NC(=O)[C@H](CO)NC(=O)[C@H](Cc1c[nH]cn1)NC(=O)[C@H](CCCNC(=N)N)NC(=O)[C@H](CS)NC(=O)CNC(=O)[C@@H](NC(=O)[C@H](CCCNC(=N)N)NC(=O)[C@H](Cc1ccccc1)NC(=O)[C@H](Cc1c[nH]cn1)NC(=O)[C@@H](NC(=O)[C@H](Cc1ccccc1)NC(=O)[C@H](CC(C)C)NC(=O)[C@H](CC(C)C)NC(=O)[C@H](CCC(N)=O)NC(=O)[C@H](CCC(N)=O)NC(=O)[C@H](CC(C)C)NC(=O)[C@@H](NC(=O)[C@H](CCCNC(=N)N)NC(=O)[C@@H](NC(=O)[C@H](CC(C)C)NC(=O)[C@H](C)NC(=O)[C@H](CCC(=O)O)NC(=O)[C@@H](NC(=O)CNC(=O)[C@@H](NC(=O)[C@H](Cc1c[nH]c2ccccc12)NC(=O)[C@@H](NC(=O)[C@H](CC(=O)O)NC(=O)CCCC[C@@H]1SC[C@@H]2NC(=O)N[C@@H]21)[C@@H](C)O)[C@@H](C)O)C(C)C)[C@@H](C)CC)[C@@H](C)CC)[C@@H](C)CC)[C@@H](C)CC)[C@@H](C)CC)C(=O)N[C@H](C(=O)N[C@@H](CCC(N)=O)C(=O)N[C@@H](CCC(N)=O)C(=O)N[C@@H](CCCNC(=N)N)C(=O)N[C@@H](CCCNC(=N)N)C(=O)N[C@H](C(=O)N[C@@H](CCCNC(=N)N)C(=O)N[C@@H](CC(N)=O)C(=O)NCC(=O)N[C@@H](C)C(=O)N[C@@H](CO)C(=O)N[C@@H](CCCCN)C(=O)N[C@@H](CO)C(=O)O)[C@@H](C)O)[C@@H](C)CC [Tox0],Kd,[2],150 pM
"C[C@@H](O)[C@H](NC(=O)[C@H](CCCNC(=N)N)NC(=O)[C@H](CCCCN)NC(=O)[C@H](CC(=O)O)NC(=O)CNC(=O)CNC(=O)[C@H](CS)NC(=O)[C@H](CCCNC(=N)N)NC(=O)CNC(=O)[C@H](CC(N)=O)NC(=O)[C@H](CS)NC(=O)CCCC[C@@H]1SC[C@@H]2NC(=O)N[C@@H]21)C(=O)N[C@@H](CCC(N)=O)C(=O)N[C@@H](Cc1ccccc1)C(=O)N[C@@H](Cc1c[nH]c2ccccc12)C(=O)N[C@@H](CCCNC(=N)N)C(=O)N[C@@H](Cc1ccc(O)cc1)C(=O)N[C@@H](Cc1ccccc1)C(=O)N1CCC[C@H]1C(=O)NCC(=O)N[C@@H](CC(N)=O)C(=O)O [Tox5, Biot-CNGRC-GG-DKRTQFWRYFPGN (hANT2m)] (Biotin-CNGRCGGDKRTQFWRYFPGN-OH; N-terminus and C-terminus assumed)",Induction of Mitochondrial swelling (sw),[1],++
same,specific binding of VDAC,[3],did not result in any specific binding
"C[C@H](NC(=O)CCCC[C@@H]1SC[C@@H]2NC(=O)N[C@@H]21)C(=O)N[C@@H](CS)C(=O)N[C@@H](CC(=O)O)C(=O)N[C@@H](CS)C(=O)N[C@@H](CCCNC(=N)N)C(=O)NCC(=O)N[C@@H](CC(=O)O)C(=O)N[C@@H](CS)C(=O)N[C@@H](Cc1ccccc1)C(=O)N[C@@H](CS)C(=O)NCC(=O)NCC(=O)N[C@@H](CC(=O)O)C(=O)N[C@@H](CCCCN)C(=O)N[C@@H](CCCNC(=N)N)C(=O)N[C@H](C(=O)N[C@@H](CCC(N)=O)C(=O)N[C@@H](Cc1ccccc1)C(=O)N[C@@H](Cc1c[nH]c2ccccc12)C(=O)N[C@@H](CCCNC(=N)N)C(=O)N[C@@H](Cc1ccc(O)cc1)C(=O)N[C@@H](Cc1ccccc1)C(=O)N1CCC[C@H]1C(=O)NCC(=O)N[C@@H](CC(N)=O)C(=O)O)[C@@H](C)O [Tox6, Biot-ACDCRGDCFC-GG-DKRTQFWRYFPGN (hANT2m)] (Biotin-ACDCRGDCFCGGDKRTQFWRYFPGN-OH; N-terminus and C-terminus assumed)",Induction of Mitochondrial swelling (sw),[1],++
same,specific binding of VDAC,[3],did not result in any specific binding
Biot- CNGRC-GG-HFAIGCRHSAIG [Ctr1 Tox1],Induction of Mitochondrial swelling (sw),[1],−
Biot- CNGRC-GG-HFRIGCRHSRIG [Tox1],Induction of Mitochondrial swelling (sw),[1],++
same,binding to purified ANT (in words),[2]; surface plasmon resonance,Binds
same,association of VDAC with the peptide ligand,[3]; VDAC concentrations ten times higher than ANT,only extremely low association
Biot-CNGRC-GG-CNGRC [Ctr2 Tox1],Induction of Mitochondrial swelling (sw),[1],−
Biot-GG-HFRIGCRHSRIG [Ctr3 Tox1],Induction of Mitochondrial swelling (sw),[1],+
Biot-RKKRRQRRR-LASGGAAGATSLCFVYPL (hANT[117-134]) [Save2],Mitrochondrial swelling (sw) %,[1]; 10 μM + Atr 600 μM,16%
same,Mitrochondrial swelling (sw) %,[1]; 10 μM alone,2%
same,Mitrochondrial swelling (sw) %,[1]; 20 μM + Atr 600 μM,16%
same,Mitrochondrial swelling (sw) %,[1]; 20 μM alone,16%
ACDCRGDCFCGGDKRTQFWRYFPGN (modifications not checked) [Tox6 (Biot-…-GG-… (hANT2m))],relative affinity,[4],0.7 nM
DTWTGVEALIRILQQLLFIHFRIGCRHSRIGIIQQRRTRNGASKS (not fully specified (N-terminus)) [Tox0 (Biotin-Vpr52-96)],Kd,[5],150 pM
CNGRCGGDKRTQFWRYFPGN (modifications not checked) [Tox5 (Biot-CNGRC-GG-… (hANT2m))],relative affinity,[4],0.1 nM
